Assay results taken from patent US9676811B2, “Testosterone derivatives with a carboxyalkyl substitution in position 3 and use thereof for the production of labelled steroids for determining the concentration of testosterone in a biological sample” (BIOMERIEUX, priority 2012, dated 2017).

Assays:
Format in all cases: binding
[1] = test system: sheep anti-testosterone monoclonal antibody clone 3.6A3 (Ab3); experiment: Microplate competitive testosterone immunoassay, Ab3 + Conjugate 2 of the invention, streptavidin-peroxidase/TMB; conditions: for B/B0% / OD450-OD630: conjugate 0.2 ng/well
Experimental: 100 μl/well of the mouse anti-goat Fe IgG monoclonal antibody (clone 9A4A5, bioMerieux) diluted to 10 μg/ml in PBS buffer 1× is distributed in a 96-well microplate (Nunc Maxisorp F96). The microplate is incubated overnight at room temperature in order to obtain adsorption of the antibody. The microplate is emptied, and then 300 μl/well of passivating buffer (buffer Tris 0.2 M pH 6.2) containing a saturating agent of the protein or peptide type, and the sheep anti-testosterone monoclonal antibody clone 3.6A3 (Ab3-bioVentix) diluted to 0.2 μg/ml are added. The microplate is incubated for 1 h at 37° C. Three washings are carried out with TBS (Tris buffered saline)-Tween®-20 0.05%. The range points used in example 10 are diluted to 1/2 in Tris buffer; 100 μl of these dilutions are distributed in the wells of the plate. After incubation for 1 h at 37° C., the wells are emptied and 0.2 ng/well of Conjugate 2 of the invention testosterone-3β-EMC-DAP-biotin in Tris buffer is added. The reaction with the conjugate is carried out for 15 minutes at 37° C., and is followed by 3 washings. 100 μl/well of streptavidin-peroxidase solution (Jackson Immunoresearch Cat. No. 016-30-084) diluted to 1/20 000 in TBS-Tween®-20 0.05%, BSA 2% is added and the microplate is incubated for 30 min at 37° C. After 3 washings, 100 μl/well of the 1-step Ultra TMB substrate (Thermo Scientific, Cat. No. 34028) is added and the microplate is incubated for 5 min at room temperature, away from the light. The reaction is then stopped by adding 100 μl of 2M sulfuric acid. The optical density (OD) at 450 nm and at 630 nm is measured in a microplate reader. For each well, the optical density at 630 nm is subtracted from the optical density at 450 nm.

[2] = test system: anti-testosterone antibody Ab2 (mouse monoclonal IgG, clone 15H9H10); experiment: VIDAS® competitive testosterone immunoassay, format Ab2 + Conjugate 1 of the invention; conditions: for B/B0% / Signal (RFV): conjugate 3 ng/ml
Experimental: (§1) Competition then takes place between the testosterone present in the sample and the testosterone derivative of the conjugate for the sites of the anti-testosterone antibody fixed on the cone. The washing steps are carried out with the buffer Tris-NaCl (0.05 mol/l) pH 7.4 or with diethanolamine (1.1 mol/1) pH 9.8 and make it possible to remove the compounds that are not fixed. During the final development step, the substrate 4-methylombelliferyl phosphate is aspirated and then introduced into the cone; the enzyme of the conjugate catalyzes the reaction of hydrolysis of this substrate in 4-methylombelliferone, and the fluorescence emitted from the latter is measured at 450 nm. The value of the fluorescence signal is inversely proportional to the concentration of the testosterone present in the sample. This concentration is calculated relative to a calibration curve.
(§2) For the other assays, we used the reagents of the VIDAS® testosterone kit (Cat. No 30418) and the assay protocol given in the instructions with the kit, with the following modifications: • Cones were sensitized with other anti-testosterone antibodies: 2 mouse monoclonal immunoglobulins G (IgG), the clones 19E10H6 and 15H9H10 (bioMerieux), which will be called Ab1 and Ab2 respectively, and 1 sheep monoclonal IgG, the clone testo3.6A3 (Bioventix), which will be called Ab3. As in the cone of the format of the reference assay, the anti-testosterone antibodies were captured by anti-species polyclonal antibodies adsorbed on the cone beforehand. It is a sheep anti-mouse IgG polyclonal antibody for Ab1 and Ab2, and a donkey anti-sheep IgG polyclonal antibody for Ab3. The anti-species antibodies are diluted to a concentration between 1 and 12 μg/ml in the sensitizing solution. After incubation for 6 h at +18/25° C., washing is carried out with saline solution. Then the solution of anti-testosterone antibodies containing a saturating agent of the protein or peptide type is added (concentration of the antibody: 0.01-0.2 μg/ml). Sensitization/passivation is continued at +18/25° C. overnight. Then the cones are emptied and dried. • The cones sensitized with the antibody Ab1 are tested with the VIDAS® conjugate, diluted to 1/2.5 for the tests with the monoclonal antibody. The cones sensitized with the antibodies Ab2 and Ab3 are tested with conjugate 1 of the invention prepared in example 9. This last-mentioned conjugate is used at a concentration of 3 ng/ml for the tests with the cones sensitized with the antibody Ab2 and 2.5 ng/ml for the cones sensitized with the antibody Ab3. • The conversion to dose is performed based on a standard 10-point range manufactured by supplementing woman's serum with testosterone in ethanolic solution. The nominal concentrations of each of the points are: 0.001 ng/ml-0.03 ng/ml-0.18 ng/ml-0.41 ng/ml-0.76 ng/ml-1.29 ng/ml-1.91 ng/ml-3.82 ng/ml-7.48 ng/ml-11.55 ng/ml. • The sample volume taken for each assay is 200 μl.
(§3) The standard range was measured with each assay format. Table 1 below summarizes the results obtained as RFV signal (relative fluorescence value) and B/B0% ratio, for the dilutions of the standard range. The ratio B/B0 is the signal obtained for the range point tested divided by the signal obtained for the range point 0.001 ng/ml of testosterone, multiplied by 100.
Secondly, to confirm that the format Ab2+Conjugate 1 of the invention is far more sensitive than the reference format REF, VIDAS® Testosterone kit, for which the measurement range recommended in the instructions extends from 0.1 to 13 ng/ml, these two formats were compared against serum samples obtained from the Etablissements Français du Sang (the French National Blood Service). These were 4 samples collected from women (codes with F), for whom the serum testosterone level is below 1 ng/ml, and 2 samples collected from men (codes with M). […]

[3] = test system: anti-testosterone antibody Ab3 (sheep monoclonal IgG, clone testo3.6A3); experiment: VIDAS® competitive testosterone immunoassay, format Ab3 + Conjugate 1 of the invention; conditions: for B/B0% / Signal (RFV): conjugate 2.5 ng/ml
Experimental: as §1, §2, §3

[4] = testosterone 0.001 ng/ml range point (diluted to 1/2)
[5] = testosterone 0.03 ng/ml range point (diluted to 1/2)
[6] = testosterone 0.18 ng/ml range point (diluted to 1/2)
[7] = testosterone 0.41 ng/ml range point (diluted to 1/2)
[8] = testosterone 0.76 ng/ml range point (diluted to 1/2)
[9] = testosterone 1.29 ng/ml range point (diluted to 1/2)
[10] = testosterone 3.82 ng/ml range point (diluted to 1/2)
[11] = testosterone 11.55 ng/ml range point (diluted to 1/2)
[12] = testosterone 0.001 ng/ml range point
[13] = testosterone 0.03 ng/ml range point
[14] = testosterone 0.18 ng/ml range point
[15] = testosterone 0.41 ng/ml range point
[16] = testosterone 0.76 ng/ml range point
[17] = testosterone 1.29 ng/ml range point
[18] = testosterone 1.91 ng/ml range point
[19] = testosterone 3.82 ng/ml range point
[20] = testosterone 7.48 ng/ml range point
[21] = testosterone 11.55 ng/ml range point

## CC12CC[C@H](OCC(=O)NCCCNC(=O)CCCCC3SCC4NC(=O)NC43)C=C1CCC1C2CCC2(C)C(O)CCC12 (stereo partly drawn) [Conjugate 2 of the invention, 17-β-Hydroxy-3-β-Carboxymethoxyandrost-4-ene/Biotin]
[1]; FIG. 2
  character of the testosterone assay range versus format Ab2+Conjugate 1 on VIDAS®: comparable
  sensitivity of the microplate assay (comparison): more sensitive than the VIDAS® assays using the VIDAS® Conjugate
[1]; [4]
  B/B0%: 100%
  OD450-OD630: 2.52
[1]; [5]
  B/B0%: 83%
  OD450-OD630: 2.10
[1]; [6]
  B/B0%: 74%
  OD450-OD630: 1.88
[1]; [7]
  B/B0%: 64%
  OD450-OD630: 1.61
[1]; [8]
  B/B0%: 54%
  OD450-OD630: 1.36
[1]; [9]
  B/B0%: 40%
  OD450-OD630: 1.00
[1]; [10]
  B/B0%: 17%
  OD450-OD630: 0.42
[1]; [11]
  B/B0%: 7%
  OD450-OD630: 0.17

## 17β-Hydroxy-3β-Carboxymethoxyandrost-4-ene/Alkaline Phosphatase [Conjugate 1 of the invention]
[2]; FIG. 1
  sensitivity of the assay format (comparison of formats): slightly more sensitive than the reference format
[2]; [12]
  B/B0%: 100%
  Signal (RFV): 4077 RFV
[2]; [13]
  B/B0%: 86%
  Signal (RFV): 3490 RFV
[2]; [14]
  B/B0%: 72%
  Signal (RFV): 2935 RFV
[2]; [15]
  B/B0%: 62%
  Signal (RFV): 2527 RFV
[2]; [16]
  B/B0%: 55%
  Signal (RFV): 2238 RFV
[2]; [17]
  B/B0%: 46%
  Signal (RFV): 1880 RFV
[2]; [18]
  B/B0%: 42%
  Signal (RFV): 1729 RFV
[2]; [19]
  B/B0%: 31%
  Signal (RFV): 1264 RFV
[2]; [20]
  B/B0%: 22%
  Signal (RFV): 905 RFV
[2]; [21]
  B/B0%: 16%
  Signal (RFV): 632 RFV
[3]; FIG. 1
  sensitivity of the assay format (comparison of formats): most sensitive
[3]; from graph of FIG. 1
  testosterone concentration giving a 50% decrease in the signal: about 0.2 ng/ml
[3]; [12]
  B/B0%: 100%
  Signal (RFV): 3209 RFV
[3]; [13]
  B/B0%: 78%
  Signal (RFV): 2492 RFV
[3]; [14]
  B/B0%: 53%
  Signal (RFV): 1700 RFV
[3]; [15]
  B/B0%: 44%
  Signal (RFV): 1403 RFV
[3]; [16]
  B/B0%: 40%
  Signal (RFV): 1286 RFV
[3]; [17]
  B/B0%: 30%
  Signal (RFV): 960 RFV
[3]; [18]
  B/B0%: 31%
  Signal (RFV): 990 RFV
[3]; [19]
  B/B0%: 20%
  Signal (RFV): 644 RFV
[3]; [20]
  B/B0%: 12%
  Signal (RFV): 380 RFV
[3]; [21]
  B/B0%: 6%
  Signal (RFV): 205 RFV
